A short description of series [1]: method code SF-AS, from DOI: 10.1016/0223-5234(94)90120-1. The note with it: pH 7.4.
Series [2] can be described thus: method code SF-AS, from PMID: 8053967. The note with it: pH 7.4.
Assay in series [3]: not given
The source holds these as a separate data set.

Series [4] in a line: method code SF-RC, from DOI: 10.1002/syn.21606, PMID: 22927303. Particulars: pH 7.4.
Assay in series [5]: not given
This is another data set of the same source.

Series [6] is described as follows: method code SF-RC, from DOI: 10.1021/jm301492y, PMID: 23214511. Particulars: pH 7.4.
Assay in series [7]: not given
The source holds these as a separate data set.

Series [8] in a line: method code SF-AS, from DOI: 10.1023/a:1018977225919, PMID: 10554109. The note with it: pH 3.5.
Series [9] in a line: method code SF-HPLC, from DOI: 10.1016/j.bmc.2011.11.059, PMID: 22189276. The note with it: pH 7.4.
Series [10] in a line: method code SF-RC, from DOI: 10.1021/jm070025+, PMID: 17411026. The note with it: pH 7.4.
Assay in series [11]: not given
This is another data set of the same source.

A short description of series [12]: method code SF-AS, from DOI: 10.1039/p29900001191. Particulars: pH 12.0.
Assay in series [13]: not given
This is another data set of the same source.

A short description of series [14]: method code SF-RC, from DOI: 10.1016/j.nucmedbio.2005.06.001, PMID: 16253804. The note with it: pH 7.4.
Series [15] in a line: method code SF, from DOI: 10.1016/j.ijpharm.2011.07.043, PMID: 21839822. The note with it: pH 7.4.
Series [16] can be described thus: method code SF-AS, from DOI: 10.1002/jps.2600610435, PMID: 5014327.
Assay in series [17]: not given
The source holds these as a separate data set.

A short description of series [18]: method code SF-AS, from DOI: 10.1002/jps.2600720808, PMID: 6620139.
Series [19] in a line: method code SF-HPLC, from DOI: 10.1584/jpestics.11.469.
The nature of series [20]: method code SF-HPLC, from DOI: 10.1039/p29890001935.
Assay in series [21]: not given
This is another data set of the same source.

Series [22] in a line: method code SF-AS, from DOI: 10.1080/1071576031000148736, PMID: 14567446.
A short description of series [23]: method code SF-RC, from DOI: 10.1016/j.bmc.2015.06.036, PMID: 26145817. The note with it: pH 7.4.
The nature of series [24]: method code SF-RC, from DOI: 10.1016/j.ejmech.2014.07.070, PMID: 25063945. Particulars: pH 7.4.
Assay in series [25]: not given
The source holds these as a separate data set.

Series [26] in a line: method code SF-HPLC, from DOI: 10.1016/j.apradiso.2007.04.014, PMID: 17574425. The note with it: pH 7.4.
Assay in series [27]: not given
The source holds these as a separate data set.

Assay in series [28]: not given
This is another data set of the same source.

Assay in series [29]: not given
This is another data set of the same source.

As for `S=C1SCN(CCc2ccccc2)CN1CCc1ccccc1`, the logD in series [1] is 5.3.
Compound `COc1ccc(-c2oc3c(CC=C(C)C)c(O)cc(O)c3c(=O)c2O)cc1` gave a logP of 6.07.
Consider `O=C(CCN1CCOCC1)CN1C(=O)CC2(CCCc3ccccc32)C1=O` (centres undefined), for which, in [2], the logD was 1.63.
`N#Cc1ccc2c(c1)N(CCCN1CCC(O)CC1)c1ccccc1S2` had a logP in series [3] of 3.89.
The compound `CCc1cc2cc(C(=O)C3CCC(OC)CC3)ccc2nc1C` (centres undefined) showed a logD in series [4] of 3.38.
Take `CO[C@@]12CCC(=O)[C@@H]3Oc4c(O)ccc5c4[C@@]31CCN(C)[C@@H]2C5`: the logP in series [5] turned out to be 0.6.
Consider `O=C(NC1CCCCC1)c1ccc(O)c(-c2ccccc2)c1`, for which the log distribution coefficient (logD) in series [6] was 2.85.
Regarding `C[C@]12CC[C@H](O)CC1=CC[C@@H]1[C@@H]2CC[C@]2(C)C(=O)CC[C@@H]12`, in series [7], the logP came to 3.23.
`CCCCCC(O)C=CC1C(O)CC(=O)C1CCCCCCC(=O)O` (centres undefined): the logD in series [8] came out at 3.12.
In turn, `CCCCCCOC(=O)NCCCC(C)Nc1cc(OC)cc2cccnc12` (centres undefined) came in with a logD in [9] of 3.02.
In the case of `CN(C)c1ccc(/C=C/c2cnc(OCCOCCOCCF)c(I)c2)cc1`, the log distribution coefficient (logD) in series [10] stood at 2.59.
In [11], `CN(SN(C)C(=O)Oc1cccc2ccccc12)C(=O)Oc1ccc2c(c1)OCO2` showed a log partition coefficient (logP) of 2.83.
`CO[C@@]12CCC(=O)[C@]3(C)Oc4c(O)ccc5c4[C@@]31CCN(C)[C@@H]2C5` returned a logP in series [5] of 1.12.
`c1ccc(Cc2cc(-c3ccccc3)nnc2NCCN2CCOCC2)cc1` returned a logD in series [12] of 3.65.
For `COc1ccc(C(C)NCCC(c2ccccc2)c2ccccc2)cc1OC` (centres undefined), the logP in [13] was 5.74.
`CNc1ccc(C=Cc2ccc(OCCOCCF)cc2)cc1` gave a logD in series [14] of 2.52.
With `CCCCCCCCCCNC(=O)c1ccccc1O`, the logD in [15] was found to be 4.53.
Consider `CNc1ccc(C=Cc2ccc(OCCOCCOCCF)cc2)cc1`, for which the logD in series [14] came to 2.41.
`CC1(C)C=C(C(=O)NCCCN2C(=O)c3ccccc3C2=O)C(C)(C)N1` had a logP in series [13] of 1.63.
In the case of `CNc1ccc(/C=C/c2cnc(OCCOCCOCCF)c(I)c2)cc1`, in series [10], the logD was 2.54.
In turn, `COc1cc(C(=O)OC2CCC[C@@H]3CN(C)CC[C@H]23)cc(OC)c1OC` (some centres undefined) had a logP in [16] of 0.58.
For `C=CCN1CC[C@]23c4c5ccc(O)c4O[C@H]2C(=O)CC[C@@]3(O)[C@H]1C5`, the logP in [17] stood at 1.53.
In [11], `Cc1cccc(OC(=O)N(C)SN(C)C(=O)Oc2ccc3c(c2)OCO3)c1` displayed a logP of 2.66.
As to `CCCCC[C@H](O)/C=C/[C@@H]1[C@@H](C/C=C\CCCC(=O)O)[C@@H](O)C[C@H]1O`, the logP in [18] was determined as 2.72.
Compound `CCOC(=O)C(C)Oc1ccc(Oc2cnc3cc(C)ccc3n2)cc1` (centres undefined) yielded a lipophilicity (logP) in [19] of 4.11.
As to `CCCCC[C@](C)(O)/C=C/C1[C@H](O)C[C@H](O)[C@@H]1C/C=C\CCCC(=O)OC` (some centres undefined), in series [18], the logP is 3.21.
In [19], `CCOC(=O)C(C)Oc1ccc(Oc2cnc3cc(F)ccc3n2)cc1` (centres undefined) came in with a logP of 3.65.
Consider `Cc1ccccc1C1OCC2ON=C(c3ccccc3)C2CO1` (centres undefined), for which, in series [20], the logP was 2.72.
`CC(n1ccnc1)C(O)(c1ccc(F)cc1)c1ccc(F)cc1` (centres undefined): the logP in series [21] worked out at 3.13.
Turning to `CCN(CC)C(=O)Nc1ccc(OCC(O)CNC(C)(C)C)c(C(C)=O)c1` (centres undefined), the logP in [3] amounted to 1.92.
On to `CC(=O)Oc1cc2c(cc1Cl)C(c1ccccc1C(=O)O)c1cc(Cl)c(OC(C)=O)cc1O2`, for which the logP in series [22] is 3.51.
With `Cc1cc(N(C)CCOCCF)n2nc(C)c(-c3ccc(Cl)cc3Cl)c2n1`, the logD in series [23] turned out to be 2.3.
`C[C@]12CC[C@@H](O)C[C@@H]1CC[C@@H]1[C@@H]2CC[C@]2(C)[C@@H](O)CC[C@@H]12` came in with a logP in [7] of 4.16.
`O=C1CC[C@@]2(O)[C@H]3Cc4ccc(O)c5c4[C@@]2(CCN3CC2CC2)[C@H]1O5`: the logP in [17] came out at 1.12.
In [24], `CNc1ccc(/C=C/C(=O)/C=C/c2ccc(F)cc2)cc1` showed a logD of 2.69.
`CNc1nc(NCCCN(C)C)c2sc(-c3cccc(C(=O)C(F)(F)F)c3)cc2n1` gave a logP in series [25] of 4.3.
For `O=C(CCl)Nc1cc2c(Nc3cc(Cl)c(Cl)cc3F)ncnc2cc1OCCOCCOCCOCCF`, the logD in series [26] came to 4.64.
The compound `Cc1cc(N(C)CCCCF)n2nc(C)c(-c3ccc(Cl)cc3Cl)c2n1` showed a logD in series [23] of 2.75.
Consider `O=C(O)c1ccccc1C1c2cc(Cl)c(O)cc2Oc2cc(O)c(Cl)cc21`, for which the logP in [22] is 2.62.
The compound `FC(F)(F)c1ccccc1C1OCC2ON=C(c3ccccc3)C2CO1` (centres undefined) gave a logP in series [20] of 4.31.
As to `O=C(CCN1CCOCC1)CN1C(=O)CC2(CCc3ccccc32)C1=O` (centres undefined), in series [2], the logD stood at 1.26.
`CCCCCCCCCCCCNC(=O)c1ccccc1O`: the logD in series [15] came to 5.37.
The compound `CN(C)c1ccc(/C=C/C(=O)/C=C/c2ccc(F)cc2)cc1` gave a logD in [24] of 3.89.
For `O=P(Oc1ccccc1)(Oc1ccccc1)Oc1ccccc1`, in series [27], the logP was found to be 3.9.
`C[C@H](CCC(=O)O)[C@H]1CC[C@H]2[C@@H]3CC[C@@H]4C[C@H](O)CC[C@]4(C)[C@H]3C[C@H](O)[C@]12C` displayed a logD in series [8] of 3.5.
For the compound `CSc1nc(NCc2cccc(Cl)c2)c2cnn(CC(Cl)c3ccccc3)c2n1` (centres undefined), the logP in [28] is 5.87.
The compound `CSc1nc(NCCc2ccccc2)c2cnn(C(Cl)c3ccc(Cl)cc3)c2n1` (centres undefined) returned a logP in series [28] of 6.54.
On to `S=C1SCN(CCc2ccccc2)CN1Cc1ccccc1`, for which the logD in [1] is 4.7.
For the compound `CCOC(=O)COC(=O)NCCCC(C)Nc1cc(OC)cc2cccn12` (centres undefined), the logD in series [9] stood at 3.09.
Compound `COc1cc2nc(N(C)CCCNC(=O)C3CCCO3)nc(N)c2cc1OC` (centres undefined) came in with a logP in series [29] of 1.93.
With `CNc1nc(NCCCN(C)C)c2sc(-c3ccc(C(=O)C(F)(F)F)cc3)cc2n1`, in [25], the log partition coefficient (logP) is 4.6.
In the case of `CCc1cc2cc(C(=O)C3CCC(OC)CC3)ccc2nc1F` (centres undefined), the logD in series [4] is 3.54.
As for `COc1cc(C(=O)NC2CCCC3CN(C)CCC32)cc(OC)c1OC` (centres undefined), in [16], the lipophilicity (logP) is -0.3.
For `Cc1ccc(OP(=O)(Oc2ccccc2)Oc2ccccc2)cc1`, the logP in [27] was 4.4.
In the case of `COC(=O)C1=C(C)NC(C)=C(C(=O)OCC(C)C)C1c1cccc([N+](=O)[O-])c1` (centres undefined), the lipophilicity (logP) in series [29] was 3.23.
The compound `CCCCCCNC(=O)c1ccc(O)c(-c2ccccc2)c1` showed a logD in series [6] of 3.67.
Consider `CC(=O)Oc1ccc(C(O)(Cn2ccnc2)c2ccc(-c3ccncc3)cc2)cc1` (centres undefined), for which the logP in series [21] amounted to 2.61.
`O=C(CCl)Nc1cc2c(Nc3cc(Cl)c(Cl)cc3F)ncnc2cc1OCCOCCF` gave a logD in series [26] of 4.3.
In the case of `N#Cc1cc(-c2ccccc2)nnc1NCCN1CCOCC1`, in series [12], the logD is 1.89.

Source of the values: the SangsterLogP compilation.
